Results on four molecules are retold here after ChEMBL document CHEMBL1138020, “Novel fibrinogen receptor antagonists. RGDF mimetics, derivatives of 4-(isoindoline-5-yl)amino-4-oxobutyric acid” (Bioorg Med Chem Lett, 2004).

Assay [1] has as its target T1, Integrin alpha-IIb/beta-3 (Homo sapiens, UniProt P05106+P08514). The assay can be described thus: In vitro binding affinity for FITC-labeled fibrinogen binding to alphaIIb-beta3 receptor of human platelets.
Assay [2] addresses T1, Integrin alpha-IIb/beta-3. The assay can be described thus: In vitro inhibition of FITC-labeled fibrinogen binding to alphaIIb-beta3 receptor of human platelets.
A short description of assay [3]: In vitro inhibition of Collagen-induced platelet aggregation in canine platelet rich plasma.

T1 sequence (P05106 27-788 limits assumed): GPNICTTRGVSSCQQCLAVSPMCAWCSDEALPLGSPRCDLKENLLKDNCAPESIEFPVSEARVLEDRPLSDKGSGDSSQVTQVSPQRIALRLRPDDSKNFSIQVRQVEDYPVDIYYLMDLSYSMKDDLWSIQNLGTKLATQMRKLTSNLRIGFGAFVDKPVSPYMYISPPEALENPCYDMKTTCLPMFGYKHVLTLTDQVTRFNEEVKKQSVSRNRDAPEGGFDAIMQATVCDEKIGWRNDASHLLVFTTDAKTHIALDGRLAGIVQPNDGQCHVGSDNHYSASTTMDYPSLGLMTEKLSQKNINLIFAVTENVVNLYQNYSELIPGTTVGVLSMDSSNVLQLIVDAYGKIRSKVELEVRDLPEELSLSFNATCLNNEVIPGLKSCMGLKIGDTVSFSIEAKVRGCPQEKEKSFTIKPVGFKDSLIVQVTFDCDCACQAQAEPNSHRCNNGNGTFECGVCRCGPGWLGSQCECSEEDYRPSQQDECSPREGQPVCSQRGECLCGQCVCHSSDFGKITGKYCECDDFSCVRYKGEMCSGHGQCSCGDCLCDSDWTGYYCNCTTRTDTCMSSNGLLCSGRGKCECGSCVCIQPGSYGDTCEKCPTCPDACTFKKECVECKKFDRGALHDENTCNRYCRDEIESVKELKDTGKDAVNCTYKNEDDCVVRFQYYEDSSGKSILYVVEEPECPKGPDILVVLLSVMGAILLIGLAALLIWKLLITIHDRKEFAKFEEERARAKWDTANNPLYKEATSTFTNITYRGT
T1 sequence (P08514 32-887 limits assumed): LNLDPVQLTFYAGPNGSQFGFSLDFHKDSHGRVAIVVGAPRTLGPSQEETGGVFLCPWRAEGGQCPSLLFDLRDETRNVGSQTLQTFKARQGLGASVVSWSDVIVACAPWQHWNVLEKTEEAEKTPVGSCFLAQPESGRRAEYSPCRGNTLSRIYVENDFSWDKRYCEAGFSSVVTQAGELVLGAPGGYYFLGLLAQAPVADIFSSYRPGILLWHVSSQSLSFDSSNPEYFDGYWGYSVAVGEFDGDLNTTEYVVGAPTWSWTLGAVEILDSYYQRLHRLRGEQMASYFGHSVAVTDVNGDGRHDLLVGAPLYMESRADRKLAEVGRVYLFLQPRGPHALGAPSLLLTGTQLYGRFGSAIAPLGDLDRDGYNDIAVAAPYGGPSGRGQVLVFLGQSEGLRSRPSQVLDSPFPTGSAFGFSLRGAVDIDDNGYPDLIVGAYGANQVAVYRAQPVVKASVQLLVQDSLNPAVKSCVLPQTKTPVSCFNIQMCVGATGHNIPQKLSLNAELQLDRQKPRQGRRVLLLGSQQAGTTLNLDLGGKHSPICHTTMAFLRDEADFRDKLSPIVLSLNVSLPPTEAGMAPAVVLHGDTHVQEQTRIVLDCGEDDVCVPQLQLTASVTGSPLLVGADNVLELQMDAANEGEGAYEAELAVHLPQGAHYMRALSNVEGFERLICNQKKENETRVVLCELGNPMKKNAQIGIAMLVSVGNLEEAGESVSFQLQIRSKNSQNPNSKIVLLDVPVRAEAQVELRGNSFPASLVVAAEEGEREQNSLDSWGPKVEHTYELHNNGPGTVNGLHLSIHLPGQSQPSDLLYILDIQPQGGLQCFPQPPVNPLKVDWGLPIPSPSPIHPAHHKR
T1 sequence (P08514 891-1039 limits assumed): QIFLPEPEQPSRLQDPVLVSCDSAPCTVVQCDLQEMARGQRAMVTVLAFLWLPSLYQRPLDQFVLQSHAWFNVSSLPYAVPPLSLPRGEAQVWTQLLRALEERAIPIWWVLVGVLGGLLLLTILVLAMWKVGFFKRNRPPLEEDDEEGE

By Ki is commonly meant a measure of affinity in units of concentration, obtained from inhibition or displacement. A higher Ki goes with lower affinity. The term IC50 denotes the concentration at which inhibition is half-maximal. Low values mean greater potency in that assay, high ones weaker potency in that assay. In assay [1], `O=C(O)CCNC(=O)CCC(=O)Nc1ccc2c(c1)CNC2` registered an inhibition constant Ki of 7.1 nM. The molecule further displayed an IC50 in assay [2] of 10 nM.

In the case of `N=C(N)c1ccc(NC(=O)CCC(=O)NC(CC(=O)O)c2ccccc2)cc1` (stereo unspecified), in assay [3], the IC50 came to 290 nM. That is a sub-micromolar value.

With `O=C(O)CC(NC(=O)CCC(=O)Nc1ccc2c(c1)CNC2)c1ccccc1` (stereo unspecified), affinity in assay [1] was put at a Ki of 4.2 nM. Besides, the IC50 in assay [2] turned out to be 8.3 nM.

For the molecule `N=C(N)c1ccc(NC(=O)CCC(=O)NCCC(=O)O)cc1`, it took 1090 nM to reach half-maximal inhibition in assay [3] (IC50). This counts as single-digit micromolar.
